Our source for the IC50 values is patent US11649237B2, “Substituted imidazo[1,5-a]pyrazines for IRE1 inhibition” (Optikira LLC, priority 2017, dated 2023).

The subject of this test is XBP-1 splicing in ARPE-19 cells or apoptosis of INS-1 cells expressing mIRE-1. In words: Cellular assay (XBP1 splicing assay or apoptosis assay). It is filed as cell-based. As to conditions: data are for the XBP1 splicing assay or the apoptosis assay (not specified per compound). On the procedure:
ARPE-19 cells stably expressing XBP-1 (a.a. 1-376) with nano-luciferase gene sequence linked so it is in frame when XBP-1 is spliced, were cultured in F12 media, 10% FBS, 0.044% sodium bicarbonate, 150 μg/ml hygromycin B and seeded for assays at 5,000 cells in 384 well plates in culture media without hygromycin B and incubated at 37° C./5% CO2. […] After further incubation of 30 minutes thapsigargin was added (final concentration 150 nM) and then another 4 hour incubation. A NanoLuc luciferase assay (Promega) was used according to the manufacturer's instructions to detect the luciferase and luminescence measured on a luminometer (EnVision, PerkinElmer).
Doxycycline (final concentration 100 nM) was added and plates incubated for a further 72 hours. To determine the proportion of apoptotic cells Hoechst 33342 (final concentration 10 μg/mL) was added, then after 30 minutes incubation cells imaged and analyzed on an InCell high content imager.
The term IC50 denotes the concentration at which inhibition is half-maximal. Low values mean greater potency, high ones weaker potency. `CCc1nc(-c2ccc(NC(=O)Nc3cccc(C(F)(F)F)c3)c3ccccc23)c2c(N)ncc(CN3CCNCC3)n12` [Example 20, 3-{4-[8-amino-3-ethyl-5-(piperazin-1-ylmethyl)imidazo[1,5-a]pyrazin-1-yl]naphthalen-1-yl}-1-[3-(trifluoromethyl)phenyl]urea] came in with an IC50 of 470 nM. That is a sub-micromolar value.

`CC(C)c1nc(-c2ccc(NS(=O)(=O)Cc3ccccc3Cl)c(F)c2)c2c(N)ncc(CN3CCNCC3)n12` [Example 36, N-(4-(8-amino-3-isopropyl-5-(piperazin-1-ylmethyl)imidazo[1,5-a]pyrazin-1-yl)-2-fluorophenyl)-1-(2-chlorophenyl)methanesulfonamide] yielded a 50% inhibitory concentration (IC50) of 1530 nM.

`Cc1cccc2nc(Cc3ccc(-c4nc(C(C)C)n5c(CN6CCNCC6)cnc(N)c45)c4ccccc34)[nH]c12` [Example 37, 3-isopropyl-1-(4-((7-methyl-1H-benzo[d]imidazol-2-yl)methyl)naphthalen-1-yl)-5-(piperazin-1-ylmethyl)imidazo[1,5-a]pyrazin-8-amine]: half-maximal inhibition (IC50) required 320 nM.

As to `Cc1nc(-c2ccc(NC(=O)Nc3cccc(C(F)(F)F)c3)c3ccccc23)c2c(N)ncc(C3CCCNC3)n12` (centres unmarked) [Example 40, 3-{4-[8-amino-3-methyl-5-(piperidin-3-yl)imidazo[1,5-a]pyrazin-1-yl]naphthalen-1-yl}-1-[3-(trifluoromethyl)phenyl]urea], the IC50 amounted to 280 nM.

Compound `CNC1CC=C(c2cnc(N)c3c(-c4ccc(CC(=O)Nc5cc(F)cc(C#N)c5)c5ccccc45)nc(C(C)C)n23)CC1` (centres unmarked) [Example 67, 2-(4-(8-amino-3-isopropyl-5-(4-(methylamino)cyclohex-1-en-1-yl)imidazo[1,5-a]pyrazin-1-yl)naphthalen-1-yl)-N-(3-cyano-5-fluorophenyl)acetamide] came in with an IC50 of 210 nM.

`CNC1CC=C(c2cnc(N)c3c(-c4ccc(CC(=O)Nc5ccccn5)c5ccccc45)nc(C(C)C)n23)CC1` (centres unmarked) [Example 68, 2-(4-(8-amino-3-isopropyl-5-(4-(methylamino)cyclohex-1-en-1-yl)imidazo[1,5-a]pyrazin-1-yl)naphthalen-1-yl)-N-(pyridin-2-yl)acetamide] showed a 50% inhibitory concentration (IC50) of 430 nM.

Compound `CNC1CC=C(c2cnc(N)c3c(-c4ccc(CC(=O)Nc5cncc(OC)c5)c5ccccc45)nc(C(C)C)n23)CC1` (centres unmarked) [Example 69, 2-(4-(8-amino-3-isopropyl-5-(4-(methylamino)cyclohex-1-en-1-yl)imidazo[1,5-a]pyrazin-1-yl)naphthalen-1-yl)-N-(5-methoxypyridin-3-yl)acetamide] returned an IC50 of 350 nM. This IC50 and that of the compound before are within 1.5-fold of each other.

Compound `CNC1CC=C(c2cnc(N)c3c(-c4ccc(CC(=O)Nc5cccc(C#N)c5)c5ccccc45)nc(C(C)C)n23)CC1` (centres unmarked) [Example 70, 2-(4-(8-amino-3-isopropyl-5-(4-(methylamino)cyclohex-1-en-1-yl)imidazo[1,5-a]pyrazin-1-yl)naphthalen-1-yl)-N-(3-cyanophenyl)acetamide] yielded an IC50 of 140 nM.

`CNC1CC=C(c2cnc(N)c3c(-c4ccc(CC(=O)Nc5cccc(OC)c5)c5ccccc45)nc(C(C)C)n23)CC1` (centres unmarked) [Example 71, 2-(4-(8-amino-3-isopropyl-5-(4-(methylamino)cyclohex-1-en-1-yl)imidazo[1,5-a]pyrazin-1-yl)naphthalen-1-yl)-N-(3-methoxyphenyl)acetamide] returned an IC50 of 62 nM. Against the preceding compound, the IC50 is about 2.3-fold lower.

`CNC1CC=C(c2cnc(N)c3c(-c4cccc5c(CC(=O)Nc6cccc(F)c6)cccc45)nc(C(C)C)n23)CC1` (centres unmarked) [Example 81, 2-(5-(8-amino-3-isopropyl-5-(4-(methylamino)cyclohex-1-en-1-yl)imidazo[1,5-a]pyrazin-1-yl)naphthalen-1-yl)-N-(3-fluorophenyl)acetamide] displayed a 50% inhibitory concentration (IC50) of 290 nM.

The compound `CNC1CC=C(c2cnc(N)c3c(-c4cccc5c(CC(=O)Nc6ccccc6)cccc45)nc(C(C)C)n23)CC1` (centres unmarked) [Example 82, 2-(5-(8-amino-3-isopropyl-5-(4-(methylamino)cyclohex-1-en-1-yl)imidazo[1,5-a]pyrazin-1-yl)naphthalen-1-yl)-N-phenylacetamide] displayed a 50% inhibitory concentration (IC50) of 400 nM. This IC50 and that of the compound before are within 1.5-fold of each other.

`CNC1CC=C(c2cnc(N)c3c(-c4ccc(NC(=O)Nc5ccccc5)c5ccccc45)nc(C(C)C)n23)CC1` (centres unmarked) [Example 121, 1-(4-(8-Amino-3-isopropyl-5-(4-(methylamino)cyclohex-1-en-1-yl)imidazo[1,5-a]pyrazin-1-yl)naphthalen-1-yl)-3-phenylurea] yielded a half-maximal inhibitory concentration (IC50) of 89 nM.

For the compound `CNC1CC=C(c2cnc(N)c3c(-c4cccc5c(NC(=O)Nc6cccc(F)c6)cccc45)nc(C(C)C)n23)CC1` (centres unmarked) [Example 123, 1-(5-(8-amino-3-isopropyl-5-(4-(methylamino)cyclohex-1-en-1-yl)imidazo[1,5-a]pyrazin-1-yl)naphthalen-1-yl)-3-(3-fluorophenyl)urea], half-maximal inhibition (IC50) required 230 nM.

As for `CNC1CC=C(c2cnc(N)c3c(-c4cccc5c(NC(=O)Nc6cccc(C(F)(F)F)c6)cccc45)nc(C(C)C)n23)CC1` (centres unmarked) [Example 124, 1-(5-(8-amino-3-isopropyl-5-(4-(methylamino)cyclohex-1-en-1-yl)imidazo[1,5-a]pyrazin-1-yl)naphthalen-1-yl)-3-(3-(trifluoromethyl)phenyl)urea], the midpoint of inhibition, the IC50, lay at 430 nM.

With `CNC1CC=C(c2cnc(N)c3c(-c4ccc(NC(=O)Nc5ccc6c(c5)OCCO6)cc4F)nc(C(C)C)n23)CC1` (centres unmarked) [Example 125, 1-(4-(8-amino-3-isopropyl-5-(4-(methylamino)cyclohex-1-en-1-yl)imidazo[1,5-a]pyrazin-1-yl)-3-fluorophenyl)-3-(2,3-dihydrobenzo[b][1,4]dioxin-6-yl)urea], the IC50 was found to be 300 nM.

Regarding `CCc1nc(-c2ccc(NC(=O)Nc3cccc(F)c3)cc2F)c2c(N)ncc(C3=CCC(NC)CC3)n12` (centres unmarked) [Example 126, 1-(4-(8-amino-3-ethyl-5-(4-(methylamino)cyclohex-1-en-1-yl)imidazo[1,5-a]pyrazin-1-yl)-3-fluorophenyl)-3-(3-fluorophenyl)urea], inhibition was half-maximal at 450 nM (IC50).

`CNC1CC=C(c2cnc(N)c3c(-c4ccc(NC(=O)Nc5cccc(F)c5)cc4F)nc(C(C)C)n23)CC1` (centres unmarked) [Example 129, 1-(4-(8-amino-3-isopropyl-5-(4-(methylamino)cyclohex-1-en-1-yl)imidazo[1,5-a]pyrazin-1-yl)-3-fluorophenyl)-3-(3-fluorophenyl)urea] yielded an IC50 of 280 nM. Against the preceding compound, the IC50 is about 1.6-fold lower.

Consider `CNC1CC=C(c2cnc(N)c3c(-c4ccc(NC(=O)Nc5ccccc5)cc4F)nc(C(C)C)n23)CC1` (centres unmarked) [Example 130, 1-(4-(8-amino-3-isopropyl-5-(4-(methylamino)cyclohex-1-en-1-yl)imidazo[1,5-a]pyrazin-1-yl)-3-fluorophenyl)-3-phenylurea], for which half-maximal inhibition (IC50) was put at 410 nM. This IC50 and that of the compound before are within 1.5-fold of each other.

Consider `CNC1CC=C(c2cnc(N)c3c(-c4ccc(NC(=O)NCc5ccccc5)c5ccccc45)nc(C(C)C)n23)CC1` (centres unmarked) [Example 139, 1-(4-(8-amino-3-isopropyl-5-(4-(methylamino)cyclohex-1-en-1-yl)imidazo[1,5-a]pyrazin-1-yl)naphthalen-1-yl)-3-benzylurea], for which the IC50 stood at 380 nM.

On to `CNC1CC=C(c2cnc(N)c3c(-c4ccc(NC(=O)Nc5ccc6c(c5)OCCO6)c5ccccc45)nc(C(C)C)n23)CC1` (centres unmarked) [Example 140, 1-(4-(8-amino-3-isopropyl-5-(4-(methylamino)cyclohex-1-en-1-yl)imidazo[1,5-a]pyrazin-1-yl)naphthalen-1-yl)-3-(2,3-dihydrobenzo[b][1,4]dioxin-6-yl)urea], for which half-maximal inhibition (IC50) required 78 nM.
